For one series, the system named is zebrafish juveniles. Briefly: Model of exercise retardation, death and teratogenicity in zebrafish juveniles made of aluminium trichloride. The conditions noted are these: for Movement distance: 72 hpe, n=6; for Movement distance / Malformation rate / Mortality rate: mean ± SE; for Malformation rate / Mortality rate: after 72 h, n=90.
Series [1] has as its target T1, AChE from Electrophorus electricus (Electrophorus electricus, UniProt O42275).
T1 construct: purchased Macklin
Briefly: biochemical. The series is classed as biochemical. The conditions noted are these: for IC50: AChE from Electrophorus electricus, mean ± SD (n=3); for AChE inhibitory activity (in words): verbal summary of Table 2; for Selectivity AChE/BuChE (in words): verbal summary of SI. The method, then: (§1) In the experiment, 0.05 mol/L phosphate buffered saline (PBS) of pH 8.0 was prepared first, and then the following solutions were prepared: 1.5 mmol/L Acetylthiocholine iodide (ATChI); 0.75 mmol/L 5, 5'-Dithiobis-(2-nitrobenzoic acid) (DTNB, Sigma Aldrich, St. Louis, MO); 0.2 U/mL Acetylcholinesterase (AChE, from […], Macklin); 0.5 U/mL Butyrylcholinesterase (BuChE, from equine serum, Aladdin, Shanghai, China); 1.5 mmol/L S-Butyrylthiocholine iodide (BTChI, Sigma Aldrich, St. Louis, MO). 4% sodium dodecyl sulphate (SDS) was prepared with secondary water. […] All solutions were stored in a refrigerator at 4 °C.
(§2) The AChE/BuChE inhibitory activity of the 3–(4-aminophenyl)-coumarin derivatives was determined by the method of Ellaman[28] with slight modifications. The experiment was divided into control group, sample blank group and sample group. Take a series of test tubes, the reagents were loaded in test tubes at the dose of Table 6. After incubation at 37 °C for 20 min, quickly add 1 mL of 4% SDS to stop the reaction. […] All experiments were run in triplicate. The absorbance was determined by UV spectrophotometer, and the inhibition rate of AChE and the IC50 value of each sample were calculated according to the formula. Inhibition rate % = {[(AC−AS)−ASB]/AC} ×100%, where AC (no sample added) is the absorbance of control group; AS is the absorbance of sample group; ASB (add sample solution but no substrate ATChI added) is the absorbance of sample blank group.

In series [2] the test system is aluminium trichloride-induced zebrafish juveniles. In words: Effects of compounds on aluminium trichloride-induced behavioural inhibition of zebrafish juveniles (Zebrobox). The conditions noted are these: for Total movement distance: mean ± SE, n=8; for Effect on behavioural inhibition of zebrafish induced by aluminium trichloride (in words): compared with the model group.
Method: The most suitable modelling concentrations were chosen, and then the effect of the compounds on the behaviour of the aluminium trichloride-induced zebrafish juveniles was explored.
The 72 hpf zebrafish were placed in a petri dish, and the normal developing juveniles were selected under a microscope in a 12-well plate. […] The continuous drug solution was exposed for 3 days. […] Each well was juvenile fish developed to 72 h post-exposure (hpe) and added 0.5 mL of culture water and 8 juveniles were set in each experimental group. The well plate was placed in the dark box of the zebrafish behaviour analysis system. The fish was first adapted to 10 min at the beginning of the experiment. The trajectories of the juveniles in each group were collected using zeblab software for 10 min, recorded every 5 min, and exported by software. Then calculate the total distance of each group of zebrafish juveniles.
The zebrafish with 72 hpf after fertilisation is placed in a petri dish. Under normal conditions, the normal developing juvenile fish are selected in a 12-well plate, and 15 juveniles per hole are set. Control group (0.5% DMSO), model group (5.0 mg/L AlCl3), 5.0 mg/L AlCl3 + test compound 5 μg/mL group, 5.0 mg/L AlCl3 + test compound 10 μg/mL group, 5.0 mg/L AlCl3 + test compound 50 μg/mL group, 5.0 mg/L AlCl3 + test compound 100 μg/mL group, three duplicate wells were set at each concentration. After the administration, the zebrafish was placed in a constant temperature incubator at 28 °C to continue the culture for 3 days. Changing the liquid (aquaculture water) every 24 h and removing dead young fish.

In another series the target is T2, BuChE from equine serum (Equus caballus, UniProt P81908).
T2 construct: Butyrylcholinesterase (BuChE, from equine serum, Aladdin, Shanghai, China); purchased Aladdin, Shanghai, China; host or cells: equine serum
T2 sequence (P81908 whole entry): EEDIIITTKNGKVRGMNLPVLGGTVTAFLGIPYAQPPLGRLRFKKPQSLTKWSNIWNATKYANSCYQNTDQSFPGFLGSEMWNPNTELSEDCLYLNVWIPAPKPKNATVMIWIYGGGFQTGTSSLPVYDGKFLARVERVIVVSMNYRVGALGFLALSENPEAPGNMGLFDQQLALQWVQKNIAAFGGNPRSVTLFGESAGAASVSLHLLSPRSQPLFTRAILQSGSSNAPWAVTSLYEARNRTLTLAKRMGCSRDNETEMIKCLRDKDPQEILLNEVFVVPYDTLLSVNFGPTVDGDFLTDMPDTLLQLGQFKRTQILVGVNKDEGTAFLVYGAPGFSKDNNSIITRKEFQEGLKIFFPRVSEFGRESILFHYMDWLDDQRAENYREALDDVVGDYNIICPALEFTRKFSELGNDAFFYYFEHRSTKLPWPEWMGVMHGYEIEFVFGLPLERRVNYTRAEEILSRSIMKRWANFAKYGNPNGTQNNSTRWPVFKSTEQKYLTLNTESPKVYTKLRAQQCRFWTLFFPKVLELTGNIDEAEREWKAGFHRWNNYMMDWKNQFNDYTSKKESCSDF
In words: biochemical. It is filed as biochemical. The settings on record: for IC50: BuChE from equine serum, mean ± SD (n=3); for BuChE inhibitory activity (in words): verbal summary of Table 2, comparison with donepezil. The method, then: as §1, §2
The method for determining BuChE is the same as the method for measuring AChE. The sample can be added with reference to Table 6, AChE is changed to BuChE, and the substrate ATChI is changed to substrate BTChI. The order of loading and the amount of loading are the same as Table 6. The absorbance was determined by UV spectrophotometer, and the inhibition rate of BuChE and the IC50 value of each sample were calculated according to the formula. The formula used is the same as AChE.

The mark [3] stands for this setting: 5 mg/L compound + 5.0 mg/L AlCl3, 3 days.
The mark [4] stands for this setting: 10 mg/L compound + 5.0 mg/L AlCl3, 3 days.
Setting [5] is: 50 mg/L compound + 5.0 mg/L AlCl3, 3 days.
[6] abbreviates: 100 mg/L compound + 5.0 mg/L AlCl3, 3 days.

Molecules are shown by their SMILES. Entries after “also recorded” stand apart in the source; their conditions may differ.

T1 sequence (O42275 24-633): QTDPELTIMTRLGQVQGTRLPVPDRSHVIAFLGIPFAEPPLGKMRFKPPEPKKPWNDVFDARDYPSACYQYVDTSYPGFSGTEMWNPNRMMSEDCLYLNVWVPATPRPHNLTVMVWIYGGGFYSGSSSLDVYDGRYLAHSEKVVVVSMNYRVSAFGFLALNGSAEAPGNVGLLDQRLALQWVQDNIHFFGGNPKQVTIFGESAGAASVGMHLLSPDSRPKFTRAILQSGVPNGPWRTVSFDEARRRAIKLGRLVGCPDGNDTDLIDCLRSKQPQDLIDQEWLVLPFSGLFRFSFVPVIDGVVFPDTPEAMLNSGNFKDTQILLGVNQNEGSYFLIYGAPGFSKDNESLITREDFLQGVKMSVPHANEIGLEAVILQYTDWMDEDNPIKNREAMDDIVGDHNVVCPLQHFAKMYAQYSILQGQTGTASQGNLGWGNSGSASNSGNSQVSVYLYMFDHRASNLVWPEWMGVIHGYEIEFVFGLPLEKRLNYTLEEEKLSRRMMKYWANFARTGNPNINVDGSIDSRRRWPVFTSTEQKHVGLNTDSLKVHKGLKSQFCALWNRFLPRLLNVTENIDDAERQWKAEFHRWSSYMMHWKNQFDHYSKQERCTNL

Turning to `[Cl][Al]([Cl])[Cl]` [AlCl3, aluminium trichloride], the Movement distance with zebrafish juveniles (AlCl3 0.1 mg/L) is 292.4 ± 6.7 cm; in the series on zebrafish juveniles (AlCl3 0.5 mg/L), 236.8 ± 9.4 cm; in the series with zebrafish juveniles (AlCl3 1.0 mg/L), 224.3 ± 10.8 cm; in the series with zebrafish juveniles (AlCl3 5.0 mg/L) it was 181.3 ± 9.6 cm; in the series with zebrafish juveniles (AlCl3 10.0 mg/L), 204.6 ± 12.8 cm. Further, the Malformation rate in the series on zebrafish juveniles (AlCl3 0.1 mg/L) came to 0.00 ± 0.00%; in the series with zebrafish juveniles (AlCl3 0.5 mg/L), 0.00 ± 0.00%; in the series with zebrafish juveniles (AlCl3 1.0 mg/L), 1.11 ± 0.17%; in the series on zebrafish juveniles (AlCl3 5.0 mg/L), 2.22 ± 0.17%; in the series on zebrafish juveniles (AlCl3 10.0 mg/L), 16.67 ± 0.29 %; in the series on zebrafish juveniles (AlCl3 50.0 mg/L), 100.00 ± 0.00 %. In addition, the Mortality rate in the series on zebrafish juveniles (AlCl3 0.1 mg/L) was determined as 0.00 ± 0.00%; in the series with zebrafish juveniles (AlCl3 0.5 mg/L), 0.00 ± 0.00%; in the series with zebrafish juveniles (AlCl3 1.0 mg/L) it was 0.00 ± 0.00%; in the series on zebrafish juveniles (AlCl3 5.0 mg/L), 1.11 ± 0.17%; in the series with zebrafish juveniles (AlCl3 10.0 mg/L) it was 11.11 ± 0.17 %; in the series on zebrafish juveniles (AlCl3 50.0 mg/L) it was 100.00 ± 0.00 %. The “Death or malformation of zebrafish (in words)” value in the series on zebrafish juveniles (AlCl3 50.0 mg/L, after 24 h administration) was “Most of the fish in the 50.0 mg/L group were dead or malformed”. For the same compound, the “Death of zebrafish (in words)” value in the series with zebrafish juveniles (AlCl3 50.0 mg/L, at 48 h) is given as “all fish died”.

With `COc1cccc2cc(-c3ccc(NC(=O)c4cccc(F)c4)cc3)c(=O)oc12` [Compound 4j, 3-[4-(3-fluoro-benzoylamino)-phenyl]-8-methoxy-coumarin], the values for the IC50 (in series [1]; against BuChE from equine serum) were 4.16 ± 0.161 µM and 0.905 ± 0.081 µM, respectively. Moreover, the “SI: selectivity index (IC50 BuChE/IC50 AChE)” value (shortened to “SI: selectivity index”) in series [1] stood at 0.217. Also, the “AChE inhibitory activity (in words)” value in series [1] was “moderate to excellent AChE inhibitory activity”. Also, the Total movement distance in series [2] (setting [3]) turned out to be 208.8 ± 9.6 cm; in series [2] (setting [4]) it was 226 ± 10.7 cm; in series [2] (setting [5]) it was 231.8 ± 13.2 cm; in series [2] (setting [6]), 225.7 ± 13.4 cm. Also, in series [2], the “Effect on behavioural inhibition of zebrafish induced by aluminium trichloride (in words)” value (“Effect on behavioural inhibition” for short) is reported as “certain therapeutic effects; also recorded: could alleviate the behavioural inhibition symptoms”. The “BuChE inhibitory activity (in words)” value on BuChE from equine serum was “better than donepezil”.

`COc1cccc2cc(-c3ccc(NC(=O)c4ccc(F)cc4)cc3)c(=O)oc12` [Compound 4k, 3-[4-(4-fluoro-benzoylamino)-phenyl]-8-methoxy-coumarin]: the IC50 (usually the concentration that gives 50% inhibition) in series [1] was determined as 28 ± 2.56 µM; on BuChE from equine serum, 0.559 ± 0.017 µM. In addition, the “SI: selectivity index” value in series [1] was determined as 0.020. For the same compound, the “Selectivity AChE/BuChE (in words)” value in series [1] is “highly selective for BuChE”. Further, the Total movement distance in series [2] (setting [3]) was found to be 194.9 ± 5.5 cm; in series [2] (setting [4]) it was 186.7 ± 7.7 cm; in series [2] (setting [5]), 181.8 ± 6.9 cm; in series [2] (setting [6]), 205.7 ± 9.5 cm. Also, at BuChE from equine serum (more active than donepezil), the “BuChE inhibitory activity relative to donepezil” value is 5 times. Also, the “BuChE inhibitory activity (in words)” value at BuChE from equine serum is reported as “better than donepezil”.

For `COc1cccc2cc(-c3ccc(NC(=O)c4ccc(C(F)(F)F)cc4)cc3)c(=O)oc12` [Compound 4l, 3-[4-(4-trifluoromethyl-benzoylamino)-phenyl]-8-methoxy-coumarin], the values for the IC50 (in series [1]; on BuChE from equine serum) were 5.6 ± 0.132 µM and 4.32 ± 0.685 µM, respectively. Besides, in series [1], the “SI: selectivity index” value came to 0.772. For the same compound, the “AChE inhibitory activity (in words)” value in series [1] is “moderate to excellent AChE inhibitory activity”. Further, the Total movement distance is 179.9 ± 10.1 cm in series [2] (setting [3]), 194.6 ± 13.6 cm in series [2] (setting [4]), 211.5 ± 20.2 cm in series [2] (setting [5]) and 184.8 ± 11.5 cm in series [2] (setting [6]).

In the case of `COc1cccc2cc(-c3ccc(NC(=O)c4ccc(CCl)cc4)cc3)c(=O)oc12` [Compound 4m, 3-[4-(4-chloromethyl-benzoylamino)-phenyl]-8-methoxy-coumarin], the values for the IC50 (in series [1]; against BuChE from equine serum) were 0.091 ± 0.011 µM and 41.2 ± 1.04 µM, respectively. For the same compound, the “SI: selectivity index” value in series [1] worked out at 452.637. In addition, the “Selectivity AChE/BuChE (in words)” value in series [1] is on record as “highly selective for AChE”. Besides, the “AChE inhibitory activity (in words)” value in series [1] was “moderate to excellent AChE inhibitory activity”. Moreover, the Total movement distance is recorded as 198.3 ± 10.1 cm in series [2] (setting [3]), 210.2 ± 6.0 cm in series [2] (setting [4]), 230.8 ± 6.2 cm in series [2] (setting [5]) and 247.1 ± 12.3 cm in series [2] (setting [6]). In addition, the “Effect on total distance of zebrafish juvenile movement (in words)” value in series [2] (at 50.0 and 100.0 μg/mL concentration) is listed as “significant therapeutic effect; also recorded: significant effects compared with the model group”. The “Effect on behavioural inhibition” value in series [2] is reported as “certain therapeutic effects; also recorded: could alleviate the behavioural inhibition symptoms”.

Turning to `COc1cccc2cc(-c3ccc(NC(=O)c4cccc(Cl)c4Cl)cc3)c(=O)oc12` [Compound 4r, 3-[4-(2,3-dichloro-benzoylamino)-phenyl]-8-methoxy-coumarin], the values for the IC50 (in series [1]; against BuChE from equine serum) were 19.7 ± 2.45 µM and 4.33 ± 0.125 µM, respectively. In series [1], the “SI: selectivity index” value was 0.220. The Total movement distance is given as 178 ± 11.2 cm in series [2] (setting [3]), 182.4 ± 4.6 cm in series [2] (setting [4]), 196.4 ± 11.7 cm in series [2] (setting [5]) and 194.4 ± 9.4 cm in series [2] (setting [6]).

Take `O=C(Nc1ccc(-c2cc3ccc(O)cc3oc2=O)cc1)c1ccco1` [Compound 5a, 3-[4-(furan-2-formylamino)-phenyl]-7-hydroxy-coumarin]: the IC50 was 2.49 ± 0.151 µM in series [1] and 9.55 ± 0.455 µM on BuChE from equine serum. Besides, the “SI: selectivity index” value in series [1] is 3.842. In addition, the “AChE inhibitory activity (in words)” value in series [1] is reported as “moderate to excellent AChE inhibitory activity”. In addition, the Total movement distance in series [2] (setting [3]) worked out at 194.2 ± 6.5 cm; in series [2] (setting [4]) it was 188.8 ± 14.7 cm; in series [2] (setting [5]), 215.5 ± 17.1 cm; in series [2] (setting [6]), 187.2 ± 6.2 cm.

Consider `COc1cccc2cc(-c3ccc(NC(=O)c4ccc5ccccc5c4)cc3)c(=O)oc12` [Compound 7b, 3-[4-(2-naphthoylamino)-phenyl]-8-methoxy-coumarin], for which the IC50 in series [1] is 0.128 ± 0.011 µM; against BuChE from equine serum it was 43.8 ± 1.97 µM. For the same compound, the “SI: selectivity index” value in series [1] stood at 341.87. In addition, the “Selectivity AChE/BuChE (in words)” value in series [1] is “highly selective for AChE”. Further, the “AChE inhibitory activity (in words)” value in series [1] is “moderate to excellent AChE inhibitory activity”. Besides, the figures for the Total movement distance in series [2] (setting [4]), in series [2] (setting [5]) and in series [2] (setting [6]) were 278.4 ± 11.4 cm, 227.4 ± 8.1 cm and 272.1 ± 10.4 cm, respectively.

`COc1cccc2cc(-c3ccc(NC(=O)c4cccs4)cc3)c(=O)oc12` [Compound 7d, 3-[4-(thiophene-2-formylamino)-phenyl]-8-methoxy-coumarin]: the results for the IC50 (in series [1]; against BuChE from equine serum) were 6.63 ± 0.12 µM and 4.65 ± 0.245 µM, respectively. Moreover, the “SI: selectivity index” value in series [1] is reported as 0.700. For the same compound, in series [1], the “AChE inhibitory activity (in words)” value is reported as “moderate to excellent AChE inhibitory activity”. Also, the Total movement distance is listed as 202.9 ± 6.2 cm in series [2] (setting [3]), 208.4 ± 9.7 cm in series [2] (setting [4]), 224.2 ± 9.2 cm in series [2] (setting [5]) and 235.4 ± 11.4 cm in series [2] (setting [6]). The “Effect on behavioural inhibition” value in series [2] is “certain therapeutic effects; also recorded: could alleviate the behavioural inhibition symptoms”.
